Tested on: HIV-1 LAI
Assay: microbe, parasite or virus in culture
Conditions: for EC50: Human immunodeficiency virus 1, MT2, 120 h; for Combination Indices at % HIV Inhibition (Confidence Interval) 50%: 50% HIV inhibition; for Combination Indices at % HIV Inhibition (Confidence Interval) 50% / Combination Indices at % HIV Inhibition (Confidence Interval) 75% / Combination Indices at % HIV Inhibition (Confidence Interval) 90%: 95% CI in parenthesis; for Combination Indices at % HIV Inhibition (Confidence Interval) 75%: 75% HIV inhibition; for Combination Indices at % HIV Inhibition (Confidence Interval) 90%: 90% HIV inhibition; for Overall Result: two-drug combination with Compound 1, all ratios and effect levels, MT-2/HIV-1 LAI, RT assay
Description: Virus and cell lines. The T-cell lines, MT-2 and PM-1 were obtained through the AIDS Research and Reference Reagent Program, NIAID, and were contributed by Dr. D. Richman and Dr. R. Gallo, respectively. Both cell lines were cultured in RPMI 1640 medium supplemented with 10% fetal bovine serum, 2 mM L-glutamine and sub-cultured twice a week. The LAI strain of HIV-1 was obtained from the Fred Hutchinson Cancer Research Center, and the Bal strain was from NIH. Both virus stocks were amplified and titered in MT-2 cells (LAI) and PM-1 cells (Bal) using a virus infectivity assay.
Drug Susceptibility and Cytotoxicity Assays. For drug susceptibility assays, MT-2 cells were infected with HIV-1 LAI (or PM-1 cells with HIV-1 Bal) at an MOI of 0.005, and seeded into 96-well microtiter plates (0.1×10^6 cells/ml) containing serial dilutions of test compounds. […] Each drug ratio consisted of an array of 3-fold serial dilutions, and was performed in quadruplicate. The plates were incubated at 37° C./5% CO2. The MT-2 cells infected with HIV-1 LAI were incubated for 5 days. On day-five post-infection, 20 μl from each well was harvested and quantitated by a reverse transcriptase (RT) assay, or in samples involving non-nucleoside RT inhibitors, an MTS assay. The PM-1 cells infected with HIV-1 Bal and used for studying the combinations with CCR5 inhibitors were incubated for six days. On day-six post-infection, 20 μl from each well was harvested, 20- and 50-fold diluted and quantitated by p24 assay. Cytotoxicity assays were performed using uninfected cells, exposed to the same drug combinations, and incubated for six days. Cell viability was determined by an XTT assay. The CC50 values were calculated by using the exponential form of the median effect equation as mentioned below for calculation of EC50.
Analysis of Drug Combination Effects. For determination of CI values, drugs were diluted in a fixed ratio and multiple ratios were analyzed. The drug serial dilutions spanned a range of concentrations near the EC50 value of each compound, so that equivalent antiviral activities could be compared. Concentration-response curves were estimated for each individual drug and every combination using the median-effect equation. The equation was fit using a nonlinear regression routine (Proc Nlin) in PC SAS version 8.01 (SAS Institute Inc., SAS Version 8.01, Cary, N.C.: SAS Institute Inc., 1990).
In this equation, Fa stands for “fraction affected,” and represents the fraction of the viral load that has been inactivated. […] ED50 is drug concentration that is expected to reduce the amount of virus by 50%, and m is a parameter that reflects the slope of the concentration-response curve.
To assess antiviral effects of different drug combination treatments, combination indices (CIs) were calculated according to Chou and Rideout. The combination index was computed as CI=[D]1/[Dm]1+[D]2/[Dm]2
In this equation [Dm]1 and [Dm]2 are the concentrations of drugs that would individually produce a specific level of effect, while [D]1 and [D]2 are the concentrations of drugs in combination that would produce the same level of effect.
Theoretically, additivity is implied if the CI is equal to one, synergy if the CI is less than one, and antagonism if the CI is greater than one. […] At best, we can construct a range that contains the likely values for the CI, given the noise in the data. In this report, these ranges are reported in parentheses next to each point estimate of the CI. […] If the range fell entirely above 1.0, we would infer antagonistic behavior. If the range were to include 1.0, we would infer additivity.
In carrying out the combination experiments below, the EC50 for Compound 1 and each comparator compound was determined during the course of each study, and used in the subsequent data analysis.

[1] = combination with Compound 1, EC50 ratio 1:1 (Compound 1:comparator)
[2] = combination with Compound 1, EC50 ratio 1:1
[3] = combination with Compound 1, EC50 ratio 1:2.5
[4] = combination with Compound 1, EC50 ratio 2.5:1

| Compound | EC50 | Combination Indices at % HIV Inhibition (Confidence Interval) 50% [1] | Combination Indices at % HIV Inhibition (Confidence Interval) 75% [2] | Combination Indices at % HIV Inhibition (Confidence Interval) 90% [2] | Combination Indices at % HIV Inhibition (Confidence Interval) 50% [3] | Combination Indices at % HIV Inhibition (Confidence Interval) 75% [3] | Combination Indices at % HIV Inhibition (Confidence Interval) 90% [3] | Combination Indices at % HIV Inhibition (Confidence Interval) 50% [4] | Combination Indices at % HIV Inhibition (Confidence Interval) 75% [4] | Combination Indices at % HIV Inhibition (Confidence Interval) 90% [4] | Overall Result | Overall Result (listed as zalcitabine) | Overall Result (listed as zidovudine) | Overall Result (listed as lopinavir) | Overall Result (listed as atazanavir) | Overall Result (listed as saquinavir) |
| --- | --- | --- | --- | --- | --- | --- | --- | --- | --- | --- | --- | --- | --- | --- | --- | --- |
| Nc1ccn([C@H]2CC[C@@H](CO)O2)c(=O)n1 [Zalcitabine, zalcitabine] | 110 nM | 0.55 (0.41, 0.70) | 0.57 (0.36, 0.77) | 0.59 (0.25, 0.92) | 0.87 (0.65, 1.08) | 0.66 (0.44, 0.89) | 0.51 (0.24, 0.78) | 0.68 (0.48, 0.89) | 0.64 (0.37, 0.90) | 0.59 (0.20, 0.98) | Synergistic | consistent synergy at all effective levels and concentration ratios | – | – | – | – |
| Cc1cn([C@H]2C[C@H](N=[N+]=[N-])[C@@H](CO)O2)c(=O)[nH]c1=O [Zidovudine, zidovudine] | 3 nM | 1.06 (0.85, 1.27) | 0.99 (0.72, 1.26) | 0.93 (0.53, 1.34) | 1.21 (1.01, 1.40) | 0.95 (0.74, 1.16) | 0.76 (0.50, 1.02) | 0.81 (0.69, 0.92) | 0.70 (0.56, 0.83) | 0.60 (0.42, 0.79) | Additive- | – | additive to synergistic | – | – | – |
| Nc1ccn([C@@H]2CS[C@H](CO)O2)c(=O)n1 [Lamivudine, lamivudine] | 140 nM | 1.02 (0.80, 1.23) | 0.59 (0.42, 0.76) | 0.37 (0.21, 0.53) | 0.89 (0.76, 1.02) | 0.41 (0.34, 0.47) | 0.20 (0.15, 0.24) | 1.07 (0.95, 1.20) | 0.71 (0.58, 0.83) | 0.50 (0.36, 0.65) | – | – | – | – | – | – |
| COc1ncc(OC)c2c(C(=O)C(=O)N3CCN(C(=O)c4ccccc4)CC3)c[nH]c12 [Compound 1, 1-benzoyl-4-[2-(4,7-dimethoxy-1H-pyrrolo[2,3-c]pyridin-3-yl)-1,2-dioxoethyl]-piperazine] | 1 to 4 nM | – | – | – | – | – | – | – | – | – | – | – | – | – | – | – |
| Cc1cccc(C)c1OCC(=O)N[C@@H](Cc1ccccc1)[C@@H](O)C[C@H](Cc1ccccc1)NC(=O)[C@H](C(C)C)N1CCCNC1=O [Lopinavir, lopinavir] | 1 nM | 0.23 (0.16, 0.42) | 0.22 (0.14, 0.30) | 0.26 (0.09, 0.44) | 0.13 (0.08, 0.18) | 0.06 (0.05, 0.08) | 0.03 (0.02, 0.05) | 1.13 (0.73, 1.52) | 0.50 (0.26, 0.74) | 0.30 (0.07, 0.52) | Synergistic | – | – | strong synergistic effects | – | – |
| COC(=O)N[C@H](C(=O)N[C@@H](Cc1ccccc1)[C@@H](O)CN(Cc1ccc(-c2ccccn2)cc1)NC(=O)[C@@H](NC(=O)OC)C(C)(C)C)C(C)(C)C [Atazanavir, atazanavir] | 1 nM | 1.04 (0.60, 1.49) | 0.58 (0.24, 0.93) | 0.33 (0.02, 0.64) | 0.23 (0.09, 0.38) | 0.35 (0.07, 0.63) | 0.52 (0.00, 1.24) | 0.88 (0.49, 1.27) | 0.67 (0.26, 1.09) | 0.52 (0.01, 1.04) | Additive- | – | – | – | additive to synergistic | – |
| CC(C)(C)NC(=O)[C@@H]1C[C@@H]2CCCC[C@@H]2CN1C[C@@H](O)[C@H](Cc1ccccc1)NC(=O)[C@H](CC(N)=O)NC(=O)c1ccc2ccccc2n1 [Saquinavir, saquinavir] | 9 nM | 0.97 (0.88, 1.07) | 0.92 (0.76, 1.07) | 0.87 (0.65, 1.09) | 0.22 (0.20, 0.24) | 0.26 (0.22, 0.29) | 0.29 (0.24, 0.35) | 1.07 (0.95, 1.20) | 0.92 (0.74, 1.10) | 0.80 (0.45, 1.14) | Additive- | – | – | – | – | additive to synergistic |
| Nc1nc(NC2CC2)c2ncn([C@H]3C=C[C@@H](CO)C3)c2n1 [Abacavir, abacavir] | 400 nM | 0.29 (0.16, 0.42) | 0.51 (0.20, 0.82) | 0.91 (0.03, 1.78) | 0.53 (0.36, 0.70) | 0.61 (0.33, 0.88) | 0.71 (0.21, 1.22) | 0.36 (0.27, 0.45) | 0.52 (0.34, 0.71) | 0.76 (0.34, 1.19) | – | – | – | – | – | – |

Reference: patent US20050215543A1, “Methods of treating HIV infection” (priority 2004, published 2005)
